Measured values reported in US20070128217A1 (priority 2003, published 2007).

Experiments:
[1] = test system: control sera (pooled serum of ten healthy LUMC hospital workers; commercial negative donor pooled serum from the Dutch bloodbank); format: binding, human; design: Binding of Control serum LUMC to linear peptides / Binding of Control serum Blood-bank to linear peptides / Binding of Control serum LUMC to looped peptides / Binding of Control Serum Blood-Bank to Looped peptides / Binding of Control serum LUMC to linear peptides of the protein M of SARS-CoV Urbani / Binding of Control serum Blood-bank to linear peptides of the protein M of SARS-CoV Urbani / Binding of Control serum LUMC to looped peptides of the protein M of SARS-CoV Urbani / Binding of Control Serum Blood-Bank to Looped peptides of the protein M of SARS-CoV Urbani: unit not given here
[2] = test system: recombinant human anti-SARS-CoV antibody 03-018; format: binding; design: Binding of antibody 03-018 to linear peptides of the N protein of SARS-CoV Urbani / Binding of antibody 03-018 to looped/cyclic peptides of the N protein of SARS-CoV Urbani: unit not given here
[3] = test system: rabbit serum obtained by immunizing a rabbit with the SARS-CoV strain Frankfurt 1; format: binding; design: Binding of a rabbit serum to linear peptides / Binding of a rabbit serum to looped peptides / Rabbit serum linear peptides / Rabbit serum looped peptides / Binding of a rabbit serum to linear peptides of protein N of SARS-CoV Urbani (Rabbit serum linear peptides) / Binding of a rabbit serum to looped/cyclic peptides of protein N of SARS-CoV Urbani (Rabbit serum looped peptides): unit not given here
[4] = test system: antibodies in sera from SARS patients (sera 1a, 1b, 2, 6, 37, 62, London, SARS-yellow, SARS-green); format: binding, human; design: Binding of serum 6 to linear peptides of protein X1 of SARS-CoV Urbani / Binding of serum 37 to linear peptides of protein X1 of SARS-CoV Urbani / Binding of serum 6 to looped/cyclic peptide (PEPSCAN-ELISA) / Binding of serum 37 to looped/cyclic peptide (PEPSCAN-ELISA) / Binding of serum 37 to looped/cyclic peptides of protein X1 of SARS-CoV Urbani / Binding of serum 6 to linear peptides of protein X2 / Binding of serum 37 to linear peptides of protein X2 / Binding of serum 37 to looped/cyclic peptides of protein X2 of SARS-CoV Urbani / Binding of serum 6 to linear peptides of protein M of SARS-CoV Urbani / Binding of serum 37 to linear peptides of protein M of SARS-CoV Urbani / Binding of serum 6 to looped/cyclic peptides of protein M of SARS-CoV Urbani / Binding of serum 37 to looped/cyclic peptides of protein M of SARS-CoV Urbani / Binding of serum 6 to linear peptides of protein X3 of SARS-CoV Urbani / Binding of serum 37 to linear peptides of protein X3 of SARS-CoV Urbani / Binding of serum 37 to looped/cyclic peptides of protein X3 of SARS-CoV Urbani / Binding of serum 6 to linear peptides of protein X4 of SARS-CoV Urbani / Binding of serum 37 to linear peptides of protein X4 of SARS-CoV Urbani / Binding of serum 37 to looped/cyclic peptides of protein X4 of SARS-CoV Urbani / Binding of serum 6 to linear peptides of protein X5 of SARS-CoV Urbani / Binding of serum 37 to linear peptides of protein X5 of SARS-CoV Urbani / Binding of serum 37 to looped/cyclic peptides of protein X5 of SARS-CoV Urbani / Binding of serum 6 to linear peptides of protein N of SARS-CoV Urbani / Binding of serum 37 to linear peptides of protein N of SARS-CoV Urbani / Binding of serum 6 to linear peptide (PEPSCAN-ELISA) / Binding of serum 1a to looped/cyclic peptides of protein N of SARS-CoV Urbani / Binding of serum 1b to looped/cyclic peptides of protein N of SARS-CoV Urbani / Binding of serum 2 to looped/cyclic peptides of protein N of SARS-CoV Urbani / Binding of serum 6 to looped/cyclic peptides of protein N of SARS-CoV Urbani / Binding of serum 37 to looped/cyclic peptides of protein N of SARS-CoV Urbani / Binding of serum 62 to looped/cyclic peptides of protein N of SARS-CoV Urbani / Binding of serum London to looped/cyclic peptides of protein N of SARS-CoV Urbani / Binding of serum SARS-green to looped/cyclic peptides of protein N of SARS-CoV Urbani: unit not given here

| Sequence | Binding of Control Serum Blood-Bank to Looped peptides [1] | Binding of Control serum Blood-bank to linear peptides [1] | Binding of Control serum LUMC to linear peptides [1] | Binding of Control serum LUMC to looped peptides [1] | Binding of antibody 03-018 to linear peptides of the N protein of SARS-CoV Urbani [2] | Binding of antibody 03-018 to looped/cyclic peptides of the N protein of SARS-CoV Urbani [2] | Binding of serum 1a to looped/cyclic peptides of protein N of SARS-CoV Urbani [4] | Binding of serum 1b to looped/cyclic peptides of protein N of SARS-CoV Urbani [4] | Binding of serum 2 to looped/cyclic peptides of protein N of SARS-CoV Urbani [4] | Binding of serum 6 to looped/cyclic peptides of protein N of SARS-CoV Urbani [4] | Binding of serum 37 to looped/cyclic peptides of protein N of SARS-CoV Urbani [4] | Binding of serum 62 to looped/cyclic peptides of protein N of SARS-CoV Urbani [4] | Binding of serum London to looped/cyclic peptides of protein N of SARS-CoV Urbani [4] | Binding of serum SARS-green to looped/cyclic peptides of protein N of SARS-CoV Urbani [4] | Binding of serum SARS-yellow to looped/cyclic peptides of protein N of SARS-CoV Urbani [4] | Binding of a rabbit serum to linear peptides of protein N of SARS-CoV Urbani (Rabbit serum linear peptides) [3] | Binding of a rabbit serum to looped/cyclic peptides of protein N of SARS-CoV Urbani (Rabbit serum looped peptides) [3] | Binding of serum 1a to linear peptides of protein N of SARS-CoV Urbani [4] | Binding of serum 1b to linear peptides of protein N of SARS-CoV Urbani [4] | Binding of serum 2 to linear peptides of protein N of SARS-CoV Urbani [4] | further results |
| --- | --- | --- | --- | --- | --- | --- | --- | --- | --- | --- | --- | --- | --- | --- | --- | --- | --- | --- | --- | --- | --- |
| TQAFGRRGPEQTQGN | 0.7 | 0.8 | 0.7 | 0.6 | 0.1 | 0.2 | 0.3 | 0.2 | 0.4 | 0.3 | 0.5 | 0.5 | 0.4 | 0.3 | 0.2 |  |  |  |  |  | Recognition of the peptide by the rabbit serum [3]: recognized; Binding of serum 1a to linear peptide (PEPSCAN-ELISA) [4]: 0.2; Binding of serum 1b to linear peptide (PEPSCAN-ELISA) [4]: 0.1; Binding of serum 2 to linear peptide (PEPSCAN-ELISA) [4]: 0.2; Binding of serum 6 to linear peptide (PEPSCAN-ELISA) [4]: 0.2; Binding of serum 37 to linear peptide (PEPSCAN-ELISA) [4]: 0.6; Binding of serum 62 to linear peptide (PEPSCAN-ELISA) [4]: 0.5; Binding of serum London to linear peptide (PEPSCAN-ELISA) [4]: 0.5; Binding of serum SARS-green to linear peptide (PEPSCAN-ELISA) [4]: 0.3; Binding of serum SARS-yellow to linear peptide (PEPSCAN-ELISA) [4]: 0.5 |
| FPPTEPKKDKKKKTD |  |  |  |  | 0.1 | 0.2 | 0.2 | 0.1 | 0.2 | 0.1 | 0.4 | 0.2 | 0.2 | 0.0 | 0.1 | 0.1 | 0.1 | 0.2 | 0.1 | 1.3 | Control Serum Blood-Bank Looped peptides [1]: 0.4; Control serum Blood-bank linear peptides [1]: 0.6; Control serum LUMC linear peptides [1]: 0.6; Control serum LUMC looped peptides [1]: 0.3; Binding of serum 6 to linear peptides of protein N of SARS-CoV Urbani [4]: 0.2; Binding of serum 37 to linear peptides of protein N of SARS-CoV Urbani [4]: 0.6; Binding of serum 62 to linear peptides of protein N of SARS-CoV Urbani [4]: 0.7; Binding of serum London to linear peptides of protein N of SARS-CoV Urbani [4]: 0.6; Binding of serum SARS-green to linear peptides of protein N of SARS-CoV Urbani [4]: 0.1; Binding of serum SARS-yellow to linear peptides of protein N of SARS-CoV Urbani [4]: 0.6 |
| GVPINTNSGPDDQIG | 0.4 | 0.7 | 0.7 | 0.4 | 0.1 | 0.2 | 0.3 | 0.2 | 0.2 | 0.1 | 0.5 | 0.3 | 0.3 | 0.3 | 0.2 | 0.1 | 0.2 | 0.3 | 0.1 | 0.2 | Binding of serum 6 to linear peptides of protein N of SARS-CoV Urbani [4]: 0.2; Binding of serum 37 to linear peptides of protein N of SARS-CoV Urbani [4]: 0.8; Binding of serum 62 to linear peptides of protein N of SARS-CoV Urbani [4]: 0.6; Binding of serum London to linear peptides of protein N of SARS-CoV Urbani [4]: 0.5; Binding of serum SARS-green to linear peptides of protein N of SARS-CoV Urbani [4]: 0.5; Binding of serum SARS-yellow to linear peptides of protein N of SARS-CoV Urbani [4]: 0.5 |
| YLGTGPEASLPYGAN | 0.7 | 0.6 | 0.8 | 0.7 | 0.1 | 0.2 | 0.4 | 0.3 | 0.4 | 0.2 | 0.8 | 0.7 | 0.5 | 0.6 | 0.6 | 0.1 | 0.6 | 0.2 | 0.1 | 0.2 | Binding of serum 6 to linear peptides of protein N of SARS-CoV Urbani [4]: 0.2; Binding of serum 37 to linear peptides of protein N of SARS-CoV Urbani [4]: 0.7; Binding of serum 62 to linear peptides of protein N of SARS-CoV Urbani [4]: 0.6; Binding of serum London to linear peptides of protein N of SARS-CoV Urbani [4]: 0.5; Binding of serum SARS-green to linear peptides of protein N of SARS-CoV Urbani [4]: 0.3; Binding of serum SARS-yellow to linear peptides of protein N of SARS-CoV Urbani [4]: 0.6 |
